Measurements taken from patent US20200172966A1 (YAMAGUCHI UNIVERSITY, priority 2015, published 2020).

Assay: incidence of side effect (hematologic toxicity) by single nucleotide polymorphism genotype in Japanese patients with colon cancer who had received irinotecan
Type: in vivo, human
Procedure: By using TaqMan SNP Assays Human (manufactured by Applied Biosystems, Inc.) and LightCycler (R) 480 Probe Master (manufactured by Roche Diagnostics, Inc.), Universal ProbeLibrary (manufactured by Roche Diagnostics, Inc.), and LightCycler 480 System II (manufactured by Roche Diagnostics, Inc.), 10 ng of genomic DNA was subjected to genotyping. After incubation at 95° C. for 10 min, the sample was subjected to PCR amplification with 55 cycles for rs1980576, rs2272761, and rs9425343, 45 cycles for rs12577167, rs7265854, and rs1135640, or 40 cycles for rs1547 (1 cycle consisted of 92° C. for 15 sec and 60° C. for 60 sec). The fluorescence emitted from the PCR products were measured.
The “Odds ratio” in Table 3 refers to an odds ratio indicating the occurrence of a side effect as calculated using a Fisher's exact test on a single nucleotide polymorphism being homozygous for a wild-type or homozygous for a variant type.
The term (P value/C.-A.) in Table 4 is the same as in Table 2. […] The term “Odds ratio” in Table 5 is the same as in Table 3.

[1] = N = 67, homozygous UGT1A1*28, homozygous *6, compound heterozygous excluded (Table 2), ACOX1 rs1135640 C/C
[2] = N = 67, homozygous UGT1A1*28, homozygous *6, compound heterozygous excluded (Table 2), ACOX1 rs1135640 C/G
[3] = N = 67, homozygous UGT1A1*28, homozygous *6, compound heterozygous excluded (Table 2), ACOX1 rs1135640 G/G
[4] = N = 67, homozygous UGT1A1*28, homozygous *6, compound heterozygous excluded (Table 3), ACOX1 rs1135640 G/G
[5] = N = 67, homozygous UGT1A1*28, homozygous *6, compound heterozygous excluded, ACOX1 rs1135640 C/C, C/G
[6] = N = 67, homozygous UGT1A1*28, homozygous *6, compound heterozygous excluded, APCDD1L rs1980576 A/A
[7] = N = 67, homozygous UGT1A1*28, homozygous *6, compound heterozygous excluded, APCDD1L rs1980576 A/A, A/G
[8] = N = 67, homozygous UGT1A1*28, homozygous *6, compound heterozygous excluded, APCDD1L rs1980576 A/G, G/G
[9] = N = 67, homozygous UGT1A1*28, homozygous *6, compound heterozygous excluded, APCDD1L rs1980576 G/G
[10] = N = 67, homozygous UGT1A1*28, homozygous *6, compound heterozygous excluded, APCDD1L rs7265854 C/C
[11] = N = 67, homozygous UGT1A1*28, homozygous *6, compound heterozygous excluded, APCDD1L rs7265854 T/T, T/C
[12] = N = 67, homozygous UGT1A1*28, homozygous *6, compound heterozygous excluded, EDEM3 rs9425343 T/G, G/G
[13] = N = 67, homozygous UGT1A1*28, homozygous *6, compound heterozygous excluded, EDEM3 rs9425343 T/T
[14] = N = 67, homozygous UGT1A1*28, homozygous *6, compound heterozygous excluded, R3HCC1 rs2272761 G/A, A/A
[15] = N = 68, homozygous UGT1A1*28, homozygous *6, compound heterozygous excluded, APCDD1L rs1980576 A/A
[16] = N = 68, homozygous UGT1A1*28, homozygous *6, compound heterozygous excluded, APCDD1L rs1980576 A/G
[17] = N = 68, homozygous UGT1A1*28, homozygous *6, compound heterozygous excluded, APCDD1L rs1980576 G/G
[18] = N = 68, homozygous UGT1A1*28, homozygous *6, compound heterozygous excluded, APCDD1L rs7268854 A/A
[19] = N = 68, homozygous UGT1A1*28, homozygous *6, compound heterozygous excluded, APCDD1L rs7268854 A/G
[20] = N = 68, homozygous UGT1A1*28, homozygous *6, compound heterozygous excluded, APCDD1L rs7268854 G/G
[21] = N = 68, homozygous UGT1A1*28, homozygous *6, compound heterozygous excluded, CSMD2 rs474474 A/A
[22] = N = 68, homozygous UGT1A1*28, homozygous *6, compound heterozygous excluded, CSMD2 rs474474 A/G
[23] = N = 68, homozygous UGT1A1*28, homozygous *6, compound heterozygous excluded, CSMD2 rs474474 G/G
[24] = N = 68, homozygous UGT1A1*28, homozygous *6, compound heterozygous excluded, EDEM3 rs9425343 G/G
[25] = N = 68, homozygous UGT1A1*28, homozygous *6, compound heterozygous excluded, EDEM3 rs9425343 T/G
[26] = N = 68, homozygous UGT1A1*28, homozygous *6, compound heterozygous excluded, EDEM3 rs9425343 T/T
[27] = N = 68, homozygous UGT1A1*28, homozygous *6, compound heterozygous excluded, GATA2 rs2335052 A/A
[28] = N = 68, homozygous UGT1A1*28, homozygous *6, compound heterozygous excluded, GATA2 rs2335052 G/A
[29] = N = 68, homozygous UGT1A1*28, homozygous *6, compound heterozygous excluded, GATA2 rs2335052 G/G
[30] = N = 68, homozygous UGT1A1*28, homozygous *6, compound heterozygous excluded, MKKS rs1547 C/C
[31] = N = 68, homozygous UGT1A1*28, homozygous *6, compound heterozygous excluded, MKKS rs1547 C/T
[32] = N = 68, homozygous UGT1A1*28, homozygous *6, compound heterozygous excluded, MKKS rs1547 T/T
[33] = N = 68, homozygous UGT1A1*28, homozygous *6, compound heterozygous excluded, OR5112 rs12577167 A/A
[34] = N = 68, homozygous UGT1A1*28, homozygous *6, compound heterozygous excluded, OR5112 rs12577167 A/G
[35] = N = 68, homozygous UGT1A1*28, homozygous *6, compound heterozygous excluded, OR5112 rs12577167 G/G
[36] = N = 68, homozygous UGT1A1*28, homozygous *6, compound heterozygous excluded, R3HCC1 rs2272761 A/A
[37] = N = 68, homozygous UGT1A1*28, homozygous *6, compound heterozygous excluded, R3HCC1 rs2272761 G/A
[38] = N = 68, homozygous UGT1A1*28, homozygous *6, compound heterozygous excluded, R3HCC1 rs2272761 G/G

For CCc1c2c(nc3ccc(OC(=O)N4CCC(N5CCCCC5)CC4)cc13)-c1cc3c(c(=O)n1C2)COC(=O)[C@]3(O)CC [irinotecan, 1,4′-Bipiperidine-1′-carboxylic acid (S)-4,11-diethyl-3,4,12,14-tetrahydro-4-hydroxy-3,14-dioxo-1H-pyrano[3′,4′:6,7]indolizino[1,2-b]quinolin-9-yl ester], which “irinotecan side effect observed” value (68 cases considered to have a low risk of a side effect in view of the UGT1A gene polymorphisms) is on record?
The value was 42.6%.

And the “Toxicity No” value [1]?
Its value is 3.

What about the “Toxicity Yes” value [1] of the same compound?
Its value is 6.

What about the “Toxicity No” value [2] of the same compound?
The value was 14.

What about the “Toxicity Yes” value [2] of the same compound?
The value was 15.

What about the “Toxicity No” value [3] of the same compound?
The value was 21.

What about the “Toxicity Yes” value [3] of the same compound?
Its value is 8.

What about the “Toxicity No” value [4] of the same compound?
The value was 21.

What about the “Toxicity Yes” value [4] of the same compound?
The value was 8.

And the “Toxicity No” value [5]?
Its value is 17.

And the “Toxicity Yes” value [5]?
The value was 21.

And the “Toxicity No” value [6]?
Its value is 16.

And the “Toxicity Yes” value [6]?
Its value is 5.

What about the “Toxicity No” value [7] of the same compound?
The value was 35.

What about the “Toxicity Yes” value [7] of the same compound?
The value was 21.

What about the “Toxicity No” value [8] of the same compound?
Its value is 22.

What about the “Toxicity Yes” value [8] of the same compound?
Its value is 24.

What about the “Toxicity No” value [9] of the same compound?
Its value is 3.

And the “Toxicity Yes” value [9]?
Its value is 8.

And the “Toxicity No” value [10]?
Its value is 8.

And the “Toxicity Yes” value [10]?
The value was 1.

And the “Toxicity No” value [11]?
Its value is 30.

What about the “Toxicity Yes” value [11] of the same compound?
Its value is 28.

And the “Toxicity No” value [12]?
Its value is 31.

And the “Toxicity Yes” value [12]?
Its value is 17.

And the “Toxicity No” value [13]?
The value was 7.

What about the “Toxicity Yes” value [13] of the same compound?
The value was 12.

What about the “Toxicity No” value [14] of the same compound?
Its value is 32.

And the “Toxicity Yes” value [14]?
The value was 29.

What about the “Toxicity No” value (N = 67, homozygous UGT1A1*28, homozygous *6, compound heterozygous excluded, R3HCC1 rs2272761 G/G) of the same compound?
Its value is 6.

And the “Toxicity No” value [15]?
Its value is 16.

What about the “Toxicity Yes” value [15] of the same compound?
The value was 5.

And the “Toxicity No” value [16]?
The value was 20.

What about the “Toxicity Yes” value [16] of the same compound?
Its value is 16.

And the “Toxicity No” value [17]?
Its value is 3.

What about the “Toxicity Yes” value [17] of the same compound?
The value was 8.

What about the “Toxicity No” value [18] of the same compound?
Its value is 13.

And the “Toxicity Yes” value [18]?
Its value is 13.

What about the “Toxicity No” value [19] of the same compound?
The value was 18.

And the “Toxicity Yes” value [19]?
Its value is 15.

And the “Toxicity No” value [20]?
Its value is 8.

And the “Toxicity Yes” value [20]?
Its value is 1.

What about the “Toxicity No” value [21] of the same compound?
Its value is 16.

And the “Toxicity Yes” value [21]?
The value was 17.

What about the “Toxicity No” value [22] of the same compound?
Its value is 18.

What about the “Toxicity Yes” value [22] of the same compound?
The value was 8.

What about the “Toxicity No” value [23] of the same compound?
The value was 5.

And the “Toxicity Yes” value [23]?
The value was 4.

What about the “Toxicity No” value [24] of the same compound?
The value was 10.

And the “Toxicity Yes” value [24]?
The value was 3.

What about the “Toxicity No” value [25] of the same compound?
The value was 21.

What about the “Toxicity Yes” value [25] of the same compound?
Its value is 14.

And the “Toxicity No” value [26]?
The value was 8.

And the “Toxicity Yes” value [26]?
Its value is 12.

What about the “Toxicity No” value [27] of the same compound?
The value was 5.

And the “Toxicity Yes” value [27]?
Its value is 3.

And the “Toxicity No” value [28]?
Its value is 20.

What about the “Toxicity Yes” value [28] of the same compound?
Its value is 10.

What about the “Toxicity No” value [29] of the same compound?
Its value is 14.

What about the “Toxicity Yes” value [29] of the same compound?
The value was 16.

What about the “Toxicity No” value [30] of the same compound?
The value was 20.

What about the “Toxicity Yes” value [30] of the same compound?
The value was 8.

What about the “Toxicity No” value [31] of the same compound?
Its value is 16.

What about the “Toxicity Yes” value [31] of the same compound?
Its value is 16.

What about the “Toxicity No” value [32] of the same compound?
Its value is 3.

What about the “Toxicity Yes” value [32] of the same compound?
The value was 5.

And the “Toxicity No” value [33]?
Its value is 19.

And the “Toxicity Yes” value [33]?
Its value is 20.

What about the “Toxicity No” value [34] of the same compound?
Its value is 14.

What about the “Toxicity Yes” value [34] of the same compound?
The value was 8.

What about the “Toxicity No” value [35] of the same compound?
The value was 6.

What about the “Toxicity Yes” value [35] of the same compound?
Its value is 1.

What about the “Toxicity No” value [36] of the same compound?
Its value is 22.

What about the “Toxicity Yes” value [36] of the same compound?
Its value is 21.

And the “Toxicity No” value [37]?
The value was 11.

And the “Toxicity Yes” value [37]?
The value was 8.

What about the “Toxicity No” value [38] of the same compound?
Its value is 6.

And the “Toxicity Yes” value [38]?
The value was 0.
